Measured values reported in patent US20240299335A1, “SHELF-STABLE FORMULATIONS OF BENZOYL PEROXIDE AND METHODS OF PRODUCING SAME” (BLUE HILL TECHNOLOGIES LLC, priority 2022, published 2024).
Entries after “also recorded” stand apart in the source; their conditions may differ.

Legend:
Format in all cases: physicochemical
[1] = Effect of antioxidants on benzene levels in 10% w/v benzoyl peroxide formulations (headspace GC-MS); settings: 10% w/v benzoyl peroxide plus antioxidant
From the text: Agilent 7890B Gas Chromatography (GC) system equipped with 7697A headspace autosampler coupled with 5977B Mass Selective Detector (MS) was used for sample analysis, and a DB-Select 624 UI, 60 m×0.32 mm×1.8 μm GC column (Agilent Technology, Santa Clara, CA) was used to separate benzene from other compounds. Dimethyl sulfoxide (DMSO, GC Headspace Grade) was used for sample preparation (Thermo Fisher Scientific, Waltham, MA). All certified reference standards, solution, and buffer reagents including sodium citrate dihydrate, citric acid, tris, and glycerol were sourced from Sigma-Aldrich, St. Louis, MO.
For benzoyl peroxide stability studies in glycerol, benzoyl peroxide was prepared in a stock suspension of 20% w/v in glycerol and mixed 1:1 with 20% w/v suspensions or v/v solutions of antioxidants in glycerol. For pH experiments, the same stock suspension of benzoyl peroxide was mixed 1:1 with a 50% glycerol solution with 200 mM buffering agent (Citrate buffer pH 3.0, Tris Buffer pH 7.0, or Tris Buffer pH 9.0) for final 75% glycerol solution. The final volume of all reactions was 100 μL in GC headspace vials with 10% solution benzoyl peroxide (10 mg) and 10% antioxidant or 100 mM buffering agent. Vials were immediately crimp sealed for incubation. For analysis, 4.9 mL of DMSO was added to make up the final volume to approximate 5 mL, crimp sealed, and gently vortexed to mix.
Benzene standard was diluted in DMSO for an 11-point calibration ranging from 10 ng/vial to 100 μg/vial. The coefficient of determination R^2 were greater than 0.999. Five (5) mL of DMSO was used for negative control samples.
Benzoyl peroxide products in original packaging were incubated for up to one month at 25° C., 37° C., or 50° C. and sampled periodically. Benzoyl peroxide and products with antioxidant additions or buffering agent additions were prepared and incubated in crimp sealed GC headspace vials.
The method USP <467> Residual Solvents Procedure A was modified from flame ionization detection (FID) to mass spectrometry (MS) detection for benzene in benzoyl peroxide products. The gas chromatography (GC) methods were also modified to allow shorter run time and the method was validated for addition of up to 500 mg benzoyl peroxide product or […] glycerol. Identification of benzene was based on the retention time matching to certified reference standards and mass spectral m/z matching to benzene. Lower limit of detection (LLOD) was 10 ng (equivalent to 0.02 ppm in hand benzoyl peroxide products) and LLOQ was 25 μg. The measurement uncertainty was determined to be 20%.
10% w/v benzoyl peroxide formulations were prepared. […]

[2] = Effect of solvents on benzene levels in 10% w/v benzoyl peroxide formulations (headspace GC-MS); settings: 10% benzoyl peroxide in the solvent; 37° C. for 10 days; compared to glycerol or NMP; FIG. 8
Procedure: (§1) The method USP <467> Residual Solvents Procedure A was modified from flame ionization detection (FID) to mass spectrometry (MS) detection for benzene in benzoyl peroxide products. […] Identification of benzene was based on the retention time matching to certified reference standards and mass spectral m/z matching to benzene.
10% w/v benzoyl peroxide formulations were prepared. […] Benzene levels in each formulation were tested at various time points according to the protocols described in Example 1.

[3] = Effect of antioxidants on benzene levels in FDA-approved benzoyl peroxide drug products (headspace GC-MS); settings: antioxidant added to commercial drug products; 50° C. for 2 days; FIG. 5
From the text: as §1

[4] = Benzene levels formed by crystalline benzoyl peroxide on incubation (headspace GC-MS); settings: incubated at 50° C. for up to 12 days; FIG. 11
From the text: as §1

[5] = 37° C. for up to two weeks, FIG. 3
[6] = 50° C. for up to two weeks, FIG. 4

| Compound | levels of benzene formed in the formulations [1, 5] | levels of benzene formed in the formulations [1, 6] | levels of benzene formed in the formulations [2] | levels of benzene formed in two FDA-approved drug products with added antioxidant [3] | other results |
| --- | --- | --- | --- | --- | --- |
| CC(=O)Oc1c(C)c(C)c2c(c1C)CCC(C)(CCC[C@H](C)CCC[C@H](C)CCCC(C)C)O2 (stereo partly drawn) [vitamin E acetate] | reduced the levels of benzene | reduced the levels of benzene |  |  |  |
| C[S+](C)[O-] [DMSO, dimethylsulfoxide] |  |  | most dramatic reduction in, or complete prevention of, benzene levels |  |  |
| CC(C)(C)c1cc(O)ccc1O [TBHQ, tert-butyl hydroquinone] |  |  |  | reduce the degradation of benzoyl peroxide to benzene |  |
| Cc1cc(C(C)(C)C)c(O)c(C(C)(C)C)c1 [BHT, butylated hydroxytoluene] | reduced the levels of benzene; also recorded: most dramatic reduction | reduced the levels of benzene; also recorded: most dramatic reduction |  | reduce the degradation of benzoyl peroxide to benzene |  |
| O=C(OOC(=O)c1ccccc1)c1ccccc1 [crystalline benzoyl peroxide, benzoyl peroxide] |  |  |  |  | levels of benzene formed [4]: may be protected from forming benzene levels |
| O [water] |  |  | most dramatic reduction in, or complete prevention of, benzene levels |  |  |
